In one assay the target is full length USP7 (Homo sapiens (Human), UniProt Q93009). In words: Ub-AMC enzymatic assay with full-length USP7. It counts as biochemical. As to conditions: for IC50: 6 hours pre-incubation, Ub-AMC. The method, then: Both constructs were overexpressed in E. coli BL21 (DE3). Cells were grown at 37° C. to an OD of 0.9, cooled to 16° C., induced with 500 μM isopropyl-1-thio-D-galactopyranoside (IPTG), incubated overnight at 16° C., collected by centrifugation, and stored at −80° C. Cell pellets were sonicated in lysis buffer (25 mM Tris pH 8, 1 M NaCl, and 10 mM BME) supplemented with 10 μg/ml phenylmethanesulfonylfluoride (PMSF) and the resulting lysate was centrifuged at 30,000×g for 40 min. Ni-NTA beads (Qiagen) were mixed with lysate supernatant for 2 hours, and washed with lysis buffer supplemented with 25 mM imidazole. The bound protein was eluted with lysis buffer supplemented with 300 mM imidazole. The sample was then concentrated to 1 ml (30 kDa concentrator; Amicon Ultra, Millipore), and run on a Superdex 200 (GE healthcare) in buffer containing 25 mM HEPES pH 7.5, 200 mM NaCl, and 1 mM DTT. Fractions were pooled, concentrated and frozen at −80° C.
Sequence of full length USP7 (Q93009 whole entry): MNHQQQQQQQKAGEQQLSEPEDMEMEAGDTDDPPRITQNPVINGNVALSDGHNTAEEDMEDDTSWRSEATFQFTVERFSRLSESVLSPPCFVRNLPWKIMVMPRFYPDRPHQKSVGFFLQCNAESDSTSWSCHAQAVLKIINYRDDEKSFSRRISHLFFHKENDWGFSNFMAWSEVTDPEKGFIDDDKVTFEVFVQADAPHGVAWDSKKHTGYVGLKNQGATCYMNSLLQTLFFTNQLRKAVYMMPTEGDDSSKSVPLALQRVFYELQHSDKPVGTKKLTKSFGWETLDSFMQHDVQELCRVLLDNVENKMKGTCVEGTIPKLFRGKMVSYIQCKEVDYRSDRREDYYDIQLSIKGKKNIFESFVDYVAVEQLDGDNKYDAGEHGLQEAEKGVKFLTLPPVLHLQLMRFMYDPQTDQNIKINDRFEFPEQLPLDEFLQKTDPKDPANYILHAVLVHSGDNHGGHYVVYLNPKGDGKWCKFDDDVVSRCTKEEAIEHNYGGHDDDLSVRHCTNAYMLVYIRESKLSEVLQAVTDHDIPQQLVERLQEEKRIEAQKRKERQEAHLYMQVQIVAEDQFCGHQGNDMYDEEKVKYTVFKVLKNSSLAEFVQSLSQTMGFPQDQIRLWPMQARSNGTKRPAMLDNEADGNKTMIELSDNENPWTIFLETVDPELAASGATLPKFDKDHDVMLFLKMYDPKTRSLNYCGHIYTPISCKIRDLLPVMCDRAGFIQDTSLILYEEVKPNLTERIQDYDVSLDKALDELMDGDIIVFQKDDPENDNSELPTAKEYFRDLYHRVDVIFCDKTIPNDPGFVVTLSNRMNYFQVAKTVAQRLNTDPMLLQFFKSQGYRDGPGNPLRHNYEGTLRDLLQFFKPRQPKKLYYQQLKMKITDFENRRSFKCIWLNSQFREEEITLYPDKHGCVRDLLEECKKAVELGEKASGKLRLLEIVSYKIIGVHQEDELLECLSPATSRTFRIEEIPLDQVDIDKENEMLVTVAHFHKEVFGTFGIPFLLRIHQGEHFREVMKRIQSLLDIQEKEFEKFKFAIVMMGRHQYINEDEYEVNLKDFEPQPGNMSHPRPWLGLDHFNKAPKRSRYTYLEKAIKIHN
Full length USP7 was tested for its activity in Ubiquitin-AMC assay in presence or absence of inhibitors. USP7 (5 nM) was pre-incubated for 6 hours at room temperature with different concentrations of inhibitors or DMSO as a control in 50 mM HEPES pH 7.5, 0.5 mM EDTA, 11 μM ovalbumin, and 5 mM DTT. Ubiquitin-AMC (Boston Biochem) was then added to a final concentration of 500 nM. The initial rate of the reaction was measured by collecting fluorescence data at one minute intervals over 30-minute period using a Clariostar fluorescence plate reader at excitation and emission wavelength of 345 and 445 nm respectively. The calculated initial rate values were plotted against inhibitor concentrations to determine IC50s. All the experimental data were plotted using Prism GraphPad. All assays for each compound were performed at least twice for each compound.

Another assay has as its target USP7 catalytic domain (Homo sapiens (Human), UniProt Q93009). Kind of assay: MS labeling of purified USP7 catalytic domain (intact MS, CE-MS). As to conditions: 15 minutes incubation. It counts as binding. On the procedure:
Purified USP7 catalytic domain was diluted to 20 μM in 10 μL labeling buffer (20 mM HEPES pH 7.5, 150 mM NaCl, 1 mM TCEP) and incubated for the indicated times with 50 μM (2.5×) compound. After incubation, samples were flash frozen in liquid nitrogen and stored at −80° C. until analysis.
Intact mass analysis was performed by injecting 5 μg USP7 catalytic domain onto a self-packed reversed phase column ( 1/32″ O.D.×500 um I.D., 5 cm of POROS 10R2 resin). After desalting, protein was eluted with an HPLC gradient (0-100% B in 4 minutes, A=0.2M acetic acid in water, B=0.2 M acetic acid in acetonitrile, flow rate ˜30 μL/min) into an LTQ ion trap mass spectrometer (ThermoFisher Scientific, San Jose, CA). Mass spectra were deconvoluted using MagTran1.03b2 software. Zhang, Z. & Marshall, A. G. A universal algorithm for fast and automated charge state deconvolution of electrospray mass-to-charge ratio spectra. J. Am. Soc. Mass Spectrom. 9, 225-233 (1998).
To identify sites of covalent modification, treated protein was reduced (10 mM dithiothreitol), alkylated (22.5 mM iodoacetamide), and digested with trypsin overnight at 37° C. Peptides were desalted using SP3 (Hughes, C. S. et al. Ultrasensitive proteome analysis using paramagnetic bead technology. Mol. Syst. Biol. 10, 757-757 (2014)), dried by vacuum centrifugation, and reconstituted in 1% formic acid/50% acetonitrile with 100 mM ammonium acetate. Peptides were then analyzed by CE-MS using a ZipChip CE system and autosampler (908 Devices, Boston, MA) interfaced to a QExactive HF mass spectrometer (ThermoFisher Scientific, San Jose, CA). Peptide solution was loaded for 30 seconds, and the mass spectrometer was operated in data dependent mode and subjected the 5 most abundant ions in each MS scan (60 k resolution, 3E6 target, lock mass enabled) to MS/MS (15 k resolution, 1E5 target, 100 ms max inject time). Dynamic exclusion was enabled with a repeat count of 1 and an exclusion time of 6 seconds. […]

The subject of another assay is TC32 cells. In words: Drug synergy analysis (Chou-Talalay combination index), TC32. It counts as cell-based. From the text:
Loewe Additivity is a dose-effect approach that estimates the effect of combining two drugs based on the concentration of each individual drug that produces the same quantitative effect (Goldoni and Johansson, 2007). […] They introduced the combination index (CI) scores to estimate the interaction between the two drugs.

The test system of a further assay is MCF7 cells. Kind of assay: Drug synergy analysis (Chou-Talalay combination index), MCF7. It counts as cell-based. From the text: Loewe Additivity is a dose-effect approach that estimates the effect of combining two drugs based on the concentration of each individual drug that produces the same quantitative effect (Goldoni and Johansson, 2007). […] They introduced the combination index (CI) scores to estimate the interaction between the two drugs. If CI<1, the drugs have a synergistic effect, and if CI>1, the drugs have an antagonistic effect. CI=1 means the drugs have an additive effect.

In assay [1] the test system is Ewing sarcoma cell lines, TP53 WT and mutant. Kind of assay: Cell proliferation (CellTiter-Glo), panel of Ewing sarcoma cell lines. It counts as cell-based. As to conditions: same set of cell lines. The method, then:
Cells were plated in 384-well culture-treated plates and allowed to settle overnight. After drug treatment and appropriate incubation time, cell viability was assessed using the CellTiter-Glo Luminescent Cell Viability Assay (Promega). Luminescence was read on a Fluostar Omega Reader (BMG Labtech).
(ATP-based viability assays read luminescence as a measure of living cells.)

The mark [2] stands for this setting: Table 1, read-out: IC50 (nM), USP7 activity in USP7 assay.
[3] abbreviates: Table 3, read-out: IC50 (μM), USP7 activity in USP7 assay.
Where [4] appears, read: Table 2, read-out: IC50 (μM), USP7 activity in USP7 assay.

Read-outs that look alike come from different tables or passages of the source.

Here are results for 20 molecules from patent US12503453B2, “USP7 inhibition” (Dana-Farber Cancer Institute, Inc., priority 2018, dated 2025).

Sequence of USP7 catalytic domain (Q93009 208-560): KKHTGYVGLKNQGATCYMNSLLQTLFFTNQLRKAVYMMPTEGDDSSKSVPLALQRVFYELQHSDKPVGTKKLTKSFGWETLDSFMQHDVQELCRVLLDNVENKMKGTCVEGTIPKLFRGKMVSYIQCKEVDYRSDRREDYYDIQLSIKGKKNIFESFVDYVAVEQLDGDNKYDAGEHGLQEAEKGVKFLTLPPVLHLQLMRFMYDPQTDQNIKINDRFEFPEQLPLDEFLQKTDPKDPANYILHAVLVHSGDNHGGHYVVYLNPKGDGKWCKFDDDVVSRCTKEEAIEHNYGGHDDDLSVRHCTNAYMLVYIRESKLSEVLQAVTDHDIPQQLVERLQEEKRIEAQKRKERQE

In the case of `CN1CCN(CCC(=O)Nc2ccc3c(=O)n(CC4(O)CCN(C(=O)C(CCCNC(=O)c5ccc6cc7c(nc6c5)CCCC7)Cc5ccccc5)CC4)cnc3c2)CC1` (centres unmarked) [compound 40, N-(4-benzyl-5-(4-hydroxy-4-((7-(3-(4-methylpiperazin-1-yl)propanamido)-4-oxoquinazolin-3(4H)-yl)methyl)piperidin-1-yl)-5-oxopentyl)-5,6,7,8-tetrahydroacridine-3-carboxamide], the “IC50 against USP7 (range in words)” value on full length USP7 (full-length USP7, Ub-AMC) is “nanomolar range”. Moreover, the “labeling of USP7 catalytic domain by MS” value on USP7 catalytic domain is “unable to label the USP7 catalytic domain”.

`COc1cc(C(=O)O)ccc1NC(=O)[C@@H]1N[C@@H](CC(C)(C)C)[C@](C#N)(c2ccc(Cl)cc2F)[C@H]1c1cccc(Cl)c1F` [RG7388]: the “combination index with compound 6” value with TC32 cells was less than 0.6. Consider `COc1cc([C@@H]2c3cc4c(cc3[C@@H](O[C@@H]3O[C@@H]5CO[C@@H](C)O[C@H]5[C@H](O)[C@H]3O)[C@H]3COC(=O)[C@H]23)OCO4)cc(OC)c1O` [etoposide], for which, in the assay on MCF7 cells, the “interaction in combination with compound 6” value (shortened to “interaction in combination”) is “mixed synergy and antagonism”. Turning to `CCc1c(-c2ccc3[nH]ncc3c2)cnc(N)c1-c1ccc(O)cc1` [GNE6640], the “specificity for TP53-WT expressing cells” value in assay [1] is on record as “little to no specificity for TP53-WT expressing cells”. On to `Cc1ncc(Cl)cc1NCc1ccc(C(=O)N[C@@H](CC2CCCC2)C(=O)NC2CC2)s1` [GSK2830371], for which, in the assay on TC32 cells, the “combination index with compound 6” value is reported as less than 0.6. In addition, in the assay with MCF7 cells, the “interaction in combination” value was “mixed synergy and antagonism”. As a reminder, the IC50 is the concentration needed to halve the response being measured. With `CN1CCN(CCC(=O)Nc2ccc3c(=O)n(CC4CCN(C(=O)C(CCCNC(=O)c5ccc6c(Cl)c7c(nc6c5)CCCC7)Cc5ccccc5)CC4)cnc3c2)CC1` (centres unmarked), the IC50 on full length USP7 (setting [2]) was greater than 1000 nM. Still for that read-out and setting: under `CN1CCN(CCC(=O)Nc2ccc3c(=O)n(CC4(O)CCN(C(=O)CCCCNC(=O)c5ccc6c(Cl)c7c(nc6c5)CCCC7)CC4)cnc3c2)CC1` [drawing 141] stands 20 to 100 nM. For the molecule `C=CC(=O)Nc1cccc(-c2cn([C@@H](Cc3ccccc3)C(=O)N3CCC(O)(Cn4cnc5cc(NC(=O)CCN6CCOCC6)ccc5c4=O)CC3)nn2)c1`, at full length USP7 (setting [3]), the IC50 was greater than 1000 nM. With `CN1CCN(CCC(=O)Nc2ccc3c(=O)n(CC4(O)CCN(C(=O)C(CCCNC(=O)c5cc(C(=O)CCl)cn5C)Cc5ccccc5)CC4)cnc3c2)CC1` (centres unmarked), the IC50 on full length USP7 (setting [2]) is greater than 1000 nM. Take `CN1CCN(CCC(=O)Nc2ccc3c(=O)n(CC4(O)CCN(C(=O)[C@@H](Cc5ccccc5)NC(=O)CNC(=O)c5ccc6c(Cl)c7c(nc6c5)CCCC7)CC4)cnc3c2)CC1`: at full length USP7 (setting [3]), the IC50 lay in the range of 20 to 100 nM. Consider `COc1cccc2c1C(=O)c1c(O)c3c(c(O)c1C2=O)C[C@@](O)(C(=O)CO)C[C@@H]3O[C@H]1C[C@H](N)[C@H](O)[C@H](C)O1` [doxorubicin], for which the “combination index with compound 6” value in the assay with TC32 cells is reported as less than 0.6. Also, the “interaction in combination” value in the assay on MCF7 cells was “mixed synergy and antagonism”.

With `C#CCNCCCC(Cc1ccccc1)C(=O)N1CCC(O)(Cn2cnc3cc(NC(=O)CCN4CCN(C)CC4)ccc3c2=O)CC1` (centres unmarked), the concentration for half-maximal inhibition (IC50) on full length USP7 (setting [4]) is 20 to 100 nM.

Turning to `O=C(CCn1ccnc1)Nc1ccc2c(=O)n(CC3(O)CCN(C(=O)CCCCNC(=O)c4ccc5c(Cl)c6c(nc5c4)CCCC6)CC3)cnc2c1`, the half-inhibitory concentration (IC50) on full length USP7 (setting [2]) lay in the range of 20 to 100 nM.

As to `CN1CCN(CCC(=O)Nc2ccc3c(=O)n(CC4(O)CCN(C(=O)[C@H](Cc5ccccc5)NC(=O)CN(C)C(=O)c5ccc6c(Cl)c7c(nc6c5)CCCC7)CC4)cnc3c2)CC1`, the IC50 on full length USP7 (setting [2]) is less than 20 nM. With `C[C@@H]1NC(=O)N[C@@H]1CCCCCC(=O)NCCOCCOCCOCCC(=O)N1CCN(CC(=O)Nc2ccc3c(=O)n(CC4(O)CCN(C(=O)CCCCNC(=O)c5ccc6c(Cl)c7c(nc6c5)CCCC7)CC4)cnc3c2)CC1` [compound 6-DTB, 9-chloro-N-(5-(4-hydroxy-4-((7-(2-(4-(19-((4R,5S)-5-methyl-2-oxoimidazolidin-4-yl)-14-oxo-4,7,10-trioxa-13-azanonadecanoyl)piperazin-1-yl)acetamido)-4-oxoquinazolin-3(4H)-yl)methyl)piperidin-1-yl)-5-oxopentyl)-5,6,7,8-tetrahydroacridine-3-carboxamide], at full length USP7 (purified enzyme and native USP7), the USP7 inhibitory activity entry was “retained USP7 inhibitory activity”. Take `O=C(CN1CCN(C(=O)c2ccc3c(Cl)c4c(nc3c2)CCCC4)CC1)N1CCC(O)(Cn2cnc3cc(Cl)ccc3c2=O)CC1`: the IC50 at full length USP7 (setting [4]) is 20 to 100 nM. With `CN1CCN(CCC(=O)Nc2ccc3c(=O)n(CC4(O)CCN(C(=O)[C@@H](Cc5ccccc5)NC(=O)CNC(=O)c5ccc6c(Cl)ccnc6c5)CC4)cnc3c2)CC1`, the IC50 on full length USP7 (setting [3]) is 20 to 100 nM.

Turning to `CN1CCN(CCC(=O)Nc2ccc3c(=O)n(CC4(O)CCN(C(=O)C(CCCNC(=O)c5ccc6c(Cl)cc(C7CCCCC7)nc6c5)Cc5ccccc5)CC4)cnc3c2)CC1` (centres unmarked), at full length USP7 (setting [3]), the IC50 lay within 20 to 100 nM. For the molecule `O=C(CCN1CCOCC1)Nc1ccc2c(=O)n(CC3(O)CCN(C(=O)[C@H](CC4CCCCC4)NC(=O)CNC(=O)c4ccc5c(Cl)c6c(nc5c4)CCCC6)CC3)cnc2c1`, on full length USP7 (setting [2]), the half-maximal inhibitory concentration (IC50) was less than 20 nM. Turning to `O=C(CCN1CCOCC1)Nc1ccc2c(=O)n(CC3(O)CCN(C(=O)[C@H](Cc4cc(F)cc(F)c4)NC(=O)CNC(=O)c4ccc5c(Cl)c6c(nc5c4)CCCC6)CC3)cnc2c1`, at full length USP7 (setting [2]), the IC50 is less than 20 nM.
